For orientation: Tmax means the time at which the peak concentration occurs.

This is an account of results in patent publication US6903132B2, “Non-peptide GnRH agents, pharmaceutical compositions and methods for their use” (Agouron Pharmaceuticals, Inc., priority 2002, dated 2005).

Structures are written as SMILES. Where “and” joins values, the source holds several entries; their conditions need not be identical. Equal entries are not always repeated.

The nature of series [1]: Pharmacokinetics in male rats. In kind it is in vivo, rat. The note with it: for M T1/ hr: male rats (MR); for M T1/ hr / Tmax: dosed orally at 50 mg/kg; for M Fp. / Tmax: male rats; for M Fp.: oral bioavailability, AUCp.o./AUCi.v.; for Tmax: rat, plasma, po, read-out: MR Tmax hr. As to the method:
Rats (male or female, 200-225 g) are prepared with indwelling jugular vein cannula as described by Harms et al., Applied Physiol. 36:391-398 (1974), and allowed to recover overnight with free access to the standard vivarium chow and water. The compounds are administered to female rats at 5 mg/kg i.v. and 10 mg/kg p.o. as solutions in 10% DMSO+10% cremophor+80% saline or 10% cremophor+90% saline. The male rats are dosed orally at 50 mg/kg in the vehicles specified in Table 3. The blood samples are withdrawn at specific times, plasma is immediately separated and compound extracted with ethyl acetate. The samples are analyzed by LC-MS using 30-90% gradient of ACN in 50 mM ammonium acetate.
(§1) The pharmacokinetic parameters are calculated using WinNonlin software (Scientific Consulting Inc.). The bioavailability is calculated as AUCp.o./AUCi.v., where AUCp.o. and AUCi.v. are areas under the plasma concentration-time curve after oral and i.v. administration, respectively.

Series [2] can be described thus: Pharmacokinetics in female rats. The format is in vivo, rat. To be noted: for FR Fp.o.: 20 mg/kg as 10 mg/ml solution in 10% DMSO 10% cremophor 80% saline, AUCp.o./AUCi.v.; for Tmax: rat, plasma, po, dose and vehicle per footnote, read-out: FR Tmax hr. On the procedure: Rats (male or female, 200-225 g) are prepared with indwelling jugular vein cannula as described by Harms et al., Applied Physiol. 36:391-398 (1974), and allowed to recover overnight with free access to the standard vivarium chow and water. […] […] The blood samples are withdrawn at specific times, plasma is immediately separated and compound extracted with ethyl acetate. The samples are analyzed by LC-MS using 30-90% gradient of ACN in 50 mM ammonium acetate.
as §1

A short description of series [3]: In vitro metabolism: disappearance of parent compound in liver microsomes (male rat). In kind it is in vitro ADME. The note with it: 5 uM compound, 0.5 mg/ml microsomal protein, 2 mM NADPH, 30 minutes at 37° C. On the procedure:
(§2) Human, rat, dog, and monkey liver microsomes are isolated by differential centrifugation. Specimens of human liver were obtained from the International Institute for the Advancement of Medicine (Scranton, Pa.). The disappearance of the parent compound is studied in a mixture containing 5 uM compound, 0.5 mg/ml microsomal protein, and 2 mM NADPH in 50 mM K Phosphate buffer, pH 7.4. Samples are incubated for 30 minutes at 37° C. The reaction is terminated by the addition of acetonitrile and compounds analyzed by LC-MS as described above.

The nature of series [4]: In vitro metabolism: disappearance of parent compound in liver microsomes. In kind it is in vitro ADME. The note with it: human liver microsomes; 5 uM compound, 0.5 mg/ml microsomal protein, 2 mM NADPH, 30 minutes at 37° C. As to the method:
as §2
A general note: Liver microsomes are a subcellular fraction often used to study metabolism.

As for `COc1cc2c(cc1Cc1ccc(C(=O)NNc3cc(C)c4c(C)nn(C)c4n3)o1)C(C)(C)CCC2(C)C` [Example C2, 5-[(3-Methoxy-5,5,8,8-tetramethyl-5,6,7,8-tetrahydro-2-naphthalenyl)methyl]-N′-(1,3,4-trimethyl-1H-pyrazolo[3,4-b]pyridin-6-yl)-2-furohydrazide], in series [1], the “M T1/ hr” value stood at 1.2 h, the “M Fp.” value is 4% and the Tmax is 1 h. For the same compound, in series [2], the “FR Fp.o.” value is on record as 15%^1 and the time of peak concentration (Tmax) was 2 h. In series [3], the “Male t % p. 30′” value amounted to 97%. Besides, the “Huma % p. 30′” value in series [4] came to 40%.

In the case of `Cc1cc2c(cc1Cc1ccc(C(=O)NNc3cc(C)c4c(C)nn(C)c4n3)o1)C(C)(C)CCC2(C)C` [Example C1, 5-[(3,5,5,8,8-Pentamethyl-5,6,7,8-tetrahydro-2-naphthalenyl)methyl]-N′-(1,3,4-trimethyl-1H-pyrazolo[3,4-b]pyridin-6yl)-2-furohydrazide], in series [1], the “M T1/ hr” value is 1.3 h, the “M Fp.” value worked out at 1% and the time of peak concentration (Tmax) was found to be 1 h. In series [2], the “FR Fp.o.” value turned out to be 19%^1 and the Tmax turned out to be 1 h. The “Male t % p. 30′” value in series [3] came to 99%. Further, the “Huma % p. 30′” value in series [4] was 63% and 54% and 37% and 38%.
